Patent US9902728B2, “Pyrrolo and pyrazolopyrimidines as ubiquitin-specific protease 7 inhibitors” (Forma Therapeutics, Inc., priority 2014, dated 2018)

The compounds below were run against T1, USP7 (Homo sapiens, UniProt Q93009) (assay: USP7 Assay A (Ubitquin-Rhodamine 110 Assay)). Settings: USP7 activity in USP7 assay A and B (table does not say which assay per compound); read-out: USP7_IC50.
T1 construct: USP7, construct USP7 (208-1102) 6*His, Viva Biotech; 6xHis (C); purchased Viva Biotech
Format: biochemical
Description: Each assay was performed in a final volume of 15 μL in assay buffer containing 20 mM Tris-HCl (pH 8.0, (1M Tris-HCl, pH 8.0 solution; Corning 46-031-CM)), 1 mM GSH (L-Glutathione reduced; Sigma #G4251), 0.03% BGG ([…], Sigma, #G7516-25G), and 0.01% Triton X-100 (Sigma, #T9284-10L). […] 5 μL of 2× enzyme was added to assay plates (pre-stamped with compound) preincubated with USP7 for 30 minutes and then 5 μL of 2×Ub-Rh110 was added to assay plates. […] Fluorescence was read on the Envision (Excitation at 485 nm and Emission at 535 nm; Perkin Elmer) or on the PheraSTAR (Excitation at 485 nm and Emission at 535 nm; BMG Labtech).
Data from USP7 Assays A and B were reported as percent inhibition (inh) compared with control wells based on the following equation: % inh=1−((FLU−AveLow)/(AveHigh−AveLow)) where FLU=measured Fluorescence (See Tables 6-10). AveLow=average Fluorescence of no enzyme control (n=16). AveHigh=average Fluorescence of DMSO control (n=16). […] Data is fitted using the Levenburg Marquardt algorithm.

T1 sequence (Q93009 208-1102): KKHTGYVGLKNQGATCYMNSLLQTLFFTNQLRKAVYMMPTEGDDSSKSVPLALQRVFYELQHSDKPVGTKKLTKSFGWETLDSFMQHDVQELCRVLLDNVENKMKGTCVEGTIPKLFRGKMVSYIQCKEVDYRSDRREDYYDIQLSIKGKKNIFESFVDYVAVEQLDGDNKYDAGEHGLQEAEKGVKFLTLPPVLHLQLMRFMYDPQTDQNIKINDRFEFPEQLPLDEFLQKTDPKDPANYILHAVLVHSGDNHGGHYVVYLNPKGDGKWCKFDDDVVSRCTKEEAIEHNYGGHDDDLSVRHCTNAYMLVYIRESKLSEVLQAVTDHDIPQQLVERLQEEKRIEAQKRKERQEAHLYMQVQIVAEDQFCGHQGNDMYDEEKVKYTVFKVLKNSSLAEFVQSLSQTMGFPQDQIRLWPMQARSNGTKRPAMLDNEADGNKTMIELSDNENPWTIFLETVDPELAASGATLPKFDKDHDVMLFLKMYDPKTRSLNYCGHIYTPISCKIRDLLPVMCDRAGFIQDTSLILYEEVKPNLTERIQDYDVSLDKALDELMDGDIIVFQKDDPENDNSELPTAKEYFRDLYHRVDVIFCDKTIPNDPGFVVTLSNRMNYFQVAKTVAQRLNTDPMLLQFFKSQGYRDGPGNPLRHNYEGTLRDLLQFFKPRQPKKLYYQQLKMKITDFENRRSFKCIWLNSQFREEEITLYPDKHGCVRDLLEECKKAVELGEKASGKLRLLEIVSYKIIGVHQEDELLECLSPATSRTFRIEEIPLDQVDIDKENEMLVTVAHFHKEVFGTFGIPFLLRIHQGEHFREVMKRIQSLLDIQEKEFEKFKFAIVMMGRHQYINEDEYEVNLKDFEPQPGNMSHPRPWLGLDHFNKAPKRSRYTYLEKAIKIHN

Question: For Cc1cnn([C@@H](CC(=O)N2CCC(O)(Cn3cnc4c(cnn4-c4ccc(F)cc4)c3=O)CC2)C(F)F)c1 (single isomer, unassigned) [Compound I-736], which IC50 is on record?
Answer: Its IC50 is over 10 µM.

Question: CN1CCN(c2ccc(-n3ncc4c(=O)n(CC5(O)CCN(C(=O)C[C@@H](C(F)F)n6cccn6)CC5)cnc43)cc2)CC1 (single isomer, unassigned) [Compound I-827] was tested. Which IC50 did it give?
Answer: The IC50 was 1 to 10 µM.

Question: How did the IC50 turn out when Cn1ccc2c(=O)n(CC3(O)CCN(C(=O)CC(C(F)F)n4ccc(F)n4)CC3)cnc21 (single isomer, unassigned) [Compound I-1695] was run?
Answer: The IC50 was under 0.2 µM.

Question: How did the IC50 turn out when Cn1ccc2c(=O)n(CC3(O)CCN(C(=O)CC(C(F)F)n4ccc(F)n4)CC3)cnc21 (single isomer, unassigned) [Compound I-1696] was run?
Answer: Its IC50 is over 10 µM.

Question: How did the IC50 turn out when Cn1ncc2c(=O)n(CC3(O)CCN(C(=O)CC(C(F)F)n4ccc(F)n4)CC3)cnc21 (single isomer, unassigned) [Compound I-1697] was run?
Answer: Its IC50 is under 0.2 µM.

Question: Cn1ncc2c(=O)n(CC3(O)CCN(C(=O)CC(C(F)F)n4ccc(F)n4)CC3)cnc21 (single isomer, unassigned) [Compound I-1698] was tested. Which IC50 did it give?
Answer: The IC50 was over 10 µM.

Question: For O=C(C1CCC(Nc2cccnc2F)CC1)N1CCC(O)(Cn2cnc3c(cnn3-c3ccccc3)c2=O)CC1 (single isomer, unassigned) [Compounds I-1039], which IC50 is on record?
Answer: Its IC50 is 0.2 to 1 µM.

Question: Which IC50 does the source give for COC1CCC(Oc2ccc(-n3ncc4c(=O)n(CC5(O)CCN(C(=O)C6(C)CC6)CC5)cnc43)cc2)CC1 (single isomer, unassigned) [Compounds I-1116] here?
Answer: The IC50 was 0.2 to 1 µM.

Same assay, conditions: USP7 assay A and B (table does not say which assay per compound); Ubiquitin-Rhodamine 110 substrate; read-out: USP7_IC50

Question: For CC(CC(=O)N1CCC(O)(Cn2cnc3c(cnn3C)c2=O)CC1)c1ccccc1 (centres unmarked) [Compound I-1, 5-((4-Hydroxy-1-(3-phenylbutanoyl)piperidin-4-yl)methyl)-1-methyl-1,5-dihydro-4H-pyrazolo[3,4-d]pyrimidin-4-one], which IC50 is on record?
Answer: The IC50 was 0.2 to 1 µM.

Same assay, conditions: USP7 assay A and B (table does not say which assay per compound); read-out: USP7_IC50

Question: How did the IC50 turn out when C[C@@H](CC(=O)N1CCC(O)(Cn2cnc3c(cnn3-c3ccc(F)cc3)c2=O)CC1)n1cc2c(n1)CCC2 (single isomer, unassigned) [Compound I-519] was run?
Answer: Its IC50 is over 10 µM.

Question: With C[C@](O)(c1ccc(C(=O)N2CCC(O)(Cn3cnc4c(cnn4-c4ccc(F)cc4)c3=O)CC2)cc1)C(F)(F)F (single isomer, unassigned) [Compound I-528] as the compound, how does the IC50 read?
Answer: The IC50 was 1 to 10 µM.

Question: For COc1ccc(C(=O)N2CCC(O)(C(C)n3cnc4c(cnn4-c4ccc(F)cc4)c3=O)CC2)cc1 (single isomer, unassigned) [Compound I-615], which IC50 is on record?
Answer: Its IC50 is 0.2 to 1 µM.

Question: For COC1(C)CCN(c2cc(-n3ncc4c(=O)n(CC5(O)CCN(C(=O)C6CC6)CC5)cnc43)ccc2F)C1 (single isomer, unassigned) [Compound I-971], which IC50 is on record?
Answer: The IC50 was 0.2 to 1 µM.

Question: Which IC50 does the source give for C[S+]([O-])c1ccc(-n2ncc3c(=O)n(CC4(O)CCN(C(=O)c5ccc(F)cc5)CC4)cnc32)cc1 (single isomer, unassigned) [Compound I-995, 5-((1-(4-fluorobenzoyl)-4-hydroxypiperidin-4-yl)methyl)-1-(4-(methylsulfinyl)phenyl)-1H-pyrazolo[3,4-d]pyrimidin-4(5H)-one] here?
Answer: Its IC50 is 1 to 10 µM.

Question: With C[S+]([O-])c1ccc(-n2ncc3c(=O)n(CC4(O)CCN(C(=O)c5ccc(F)cc5)CC4)cnc32)cc1 (single isomer, unassigned) [Compound I-996, 5-((1-(4-fluorobenzoyl)-4-hydroxypiperidin-4-yl)methyl)-1-(4-(methylsulfinyl)phenyl)-1H-pyrazolo[3,4-d]pyrimidin-4(5H)-one] as the compound, how does the IC50 read?
Answer: The IC50 was 1 to 10 µM.

Question: Which IC50 does the source give for CS(=N)(=O)c1ccc(-n2ncc3c(=O)n(CC4(O)CCN(C(=O)c5ccc(F)cc5)CC4)cnc32)cc1 (single isomer, unassigned) [Compound I-997, 5-((1-(4-fluorobenzoyl)-4-hydroxypiperidin-4-yl)methyl)-1-(4-(S-methylsulfonimidoyl)phenyl)-1,5-dihydro-4H-pyrazolo[3,4-d]pyrimidin-4-one] here?
Answer: The IC50 was 1 to 10 µM.

Question: How did the IC50 turn out when CS(=N)(=O)c1ccc(-n2ncc3c(=O)n(CC4(O)CCN(C(=O)c5ccc(F)cc5)CC4)cnc32)cc1 (single isomer, unassigned) [Compound I-998, 5-((1-(4-fluorobenzoyl)-4-hydroxypiperidin-4-yl)methyl)-1-(4-(S-methylsulfonimidoyl)phenyl)-1,5-dihydro-4H-pyrazolo[3,4-d]pyrimidin-4-one] was run?
Answer: Its IC50 is 1 to 10 µM.

Question: CN(C(=O)N1CCC(O)(Cn2cnc3c(cnn3C)c2=O)CC1)c1ccc(-c2ccccc2)cc1 [Compound I-4, N-([1,1′-biphenyl]-4-yl)-4-hydroxy-N-methyl-4-((1-methyl-4-oxo-1,4-dihydro-5H-pyrazolo[3,4-d]pyrimidin-5-yl)methyl)piperidine-1-carboxamide] was tested. Which IC50 did it give?
Answer: The IC50 was over 10 µM.

Question: With O=C(O)Cc1cccc(-n2ncc3c(=O)n(CC4(O)CCN(C(=O)c5ccccc5)CC4)cnc32)c1 [Compound I-11, 2-(3-(5-((1-Benzoyl-4-hydroxypiperidin-4-yl)methyl)-4-oxo-4,5-dihydro-1H-pyrazolo[3,4-d]pyrimidin-1-yl)phenyl)acetic acid] as the compound, how does the IC50 read?
Answer: The IC50 was over 10 µM.

Question: With Cn1ncc2c(=O)n(CC3(O)CCN(C(=O)c4ccc(Nc5ccccc5)cc4)CC3)cnc21 [Compound I-13] as the compound, how does the IC50 read?
Answer: Its IC50 is 1 to 10 µM.

Question: O=C(c1ccccc1)N1CCC(O)(Cn2cnc3c(cnn3-c3ccccc3O)c2=O)CC1 [Compound I-18, 5-((1-Benzoyl-4-hydroxypiperidin-4-yl)methyl)-1-(2-hydroxyphenyl)-1,5-dihydro-4H-pyrazolo[3,4-d]pyrimidin-4-one] was tested. Which IC50 did it give?
Answer: The IC50 was over 10 µM.

Question: Which IC50 does the source give for O=C(c1ccccc1)N1CCC(O)(Cn2cnc3c(cnn3-c3cccc(O)c3)c2=O)CC1 [Compound I-19] here?
Answer: The IC50 was 1 to 10 µM.

Question: For NCc1cccc(C(=O)N2CCC(O)(Cn3cnc4c(cnn4-c4ccccc4)c3=O)CC2)c1 [Compound I-20], which IC50 is on record?
Answer: The IC50 was 1 to 10 µM.

Question: For O=C(c1ccc(NC2CC2)cc1)N1CCC(O)(Cn2cnc3c(cnn3-c3ccccc3)c2=O)CC1 [Compound I-23, 5-((1-(4-(Cyclopropylamino)benzoyl)-4-hydroxypiperidin-4-yl)methyl)-1-phenyl-1,5-dihydro-4H-pyrazolo[3,4-d]pyrimidin-4-one], which IC50 is on record?
Answer: Its IC50 is 0.2 to 1 µM.

Question: CC(C)(C)c1ccc(-n2ncc3c(=O)n(CC4(O)CCN(C(=O)C5CC5)CC4)cnc32)cc1 [Compound I-25] was tested. Which IC50 did it give?
Answer: The IC50 was 0.2 to 1 µM.

Question: Which IC50 does the source give for Cc1cc(C)c(-n2ncc3c(=O)n(CC4(O)CCN(C(=O)C5CC5)CC4)cnc32)c(C)c1 [Compound I-26] here?
Answer: Its IC50 is over 10 µM.

Question: Which IC50 does the source give for CC(C)c1ccc(-n2ncc3c(=O)n(CC4(O)CCN(C(=O)C5CC5)CC4)cnc32)cc1 [Compound I-27] here?
Answer: Its IC50 is 1 to 10 µM.

Question: How did the IC50 turn out when O=C(C1CC1)N1CCC(O)(Cn2cnc3c(cnn3-c3ccc(C(F)(F)F)cc3)c2=O)CC1 [Compound I-28] was run?
Answer: The IC50 was 1 to 10 µM.

Question: With O=C(C1CC1)N1CCC(O)(Cn2cnc3c(cnn3C3CCCCC3)c2=O)CC1 [Compound I-29] as the compound, how does the IC50 read?
Answer: Its IC50 is over 10 µM.

Question: O=C(C1CC1)N1CCC(O)(Cn2cnc3c(cnn3-c3cccnc3)c2=O)CC1 [Compound I-30] was tested. Which IC50 did it give?
Answer: The IC50 was 1 to 10 µM.

Question: Which IC50 does the source give for CS(=O)(=O)c1ccc(-n2ncc3c(=O)n(CC4(O)CCN(C(=O)C5CC5)CC4)cnc32)cc1 [Compound I-31] here?
Answer: The IC50 was 1 to 10 µM.

Question: O=C(C1CC1)N1CCC(O)(Cn2cnc3c(cnn3-c3ccc(Cl)c(Cl)c3)c2=O)CC1 [Compound I-33] was tested. Which IC50 did it give?
Answer: Its IC50 is 1 to 10 µM.

Question: Which IC50 does the source give for O=C(C1CC1)N1CCC(O)(Cn2cnc3c(cnn3-c3cccc(C(F)(F)F)c3)c2=O)CC1 [Compound I-34] here?
Answer: The IC50 was over 10 µM.

Question: Which IC50 does the source give for O=C(C1CC1)N1CCC(O)(Cn2cnc3c(cnn3-c3ccc(Cl)cc3)c2=O)CC1 [Compound I-35] here?
Answer: The IC50 was 1 to 10 µM.

Question: Which IC50 does the source give for O=C(C1CC1)N1CCC(O)(Cn2cnc3c(cnn3-c3ccc(F)cc3)c2=O)CC1 [Compound I-38] here?
Answer: The IC50 was 1 to 10 µM.
